Here are results for four compounds from patent publication US20240197735A1, “METHODS AND COMPOSITIONS COMPRISING A BRAF INHIBITOR AND A PD-1 BINDING ANTAGONIST” (Hoffmann-La Roche Inc., priority 2021, published 2024).

One assay deals with BRAF V600E (Homo sapiens (Human), UniProt P15056, V600E). The assay can be described thus: Kd affinity for BRAF V600E kinase. In kind it is binding.
The target in assay [1] is C-terminal Src kinase (CSK) (Homo sapiens (Human), UniProt P41240). Description: Kd affinity for C-terminal Src kinase (selectivity). Type of assay: binding.
The test system of assay [2] is P-ERK in HCT116 cells expressing WT BRAF. Description: HTRF assay for P-ERK determination in HCT116 cells (paradoxical BRAF activation). In kind it is cell-based. The following applies: HCT-116 cells; for EC50: read-out: p-ERK EC50 (nM) conc. (nM) at which the compound induces P-ERK activation of 50% of that induced by dabrafenib (Positive control paradox inducer) HCT-116, 1 hour drug incubation, not applicable if activation does not reach 50% of dabrafenib maximum; for Percentage of Maximum paradox inducing effect from dabrafenib: maximum P-ERK signal as percentage of highest dabrafenib signal within dose range tested. The protocol:
(§1) A375 is a cellular cancer model expressing V600E mutated BRAF and HCT116 a cellular cancer model expressing WT BRAF. […] ERK 1,2 phosphorylation (terminal member of the phosphorylation cascade of the MAPK pathway) is hereafter reported as main readout for the activation status of the MAPK pathway. Prior to the assay, A375 and HCT116 cell lines are maintained in DMEM no-phenol red medium supplemented with 10% fetal bovine serum (FBS). […] Briefly, 8000 cells/well in 12 μl media/well are plated in the 384-well plate and left overnight in the incubator (at 37° C. with 5% CO2-humidified atmosphere), the following day the plate is treated in duplicate with test compounds, dabrafenib and PLX8394 (the latter two as controls) at the following final drug concentrations: 10 μM-3 μM-1 μM-0.3 μM-0.1 μM-0.03 μM-0.01 μM-0.003 μM-0.001 μM, all wells are subjected to DMSO normalization and drug incubation occurs for 1 hour. Then, 4 μl of a 4× lysis buffer supplied with the kit are added to the wells, the plate is then centrifuged for 30 second (300 rcf) and incubated on a plate shaker for 1 h at RT.
(§2) At the end of the incubation 4 μL/well of advanced P-ERK antibody solution (prepared according to manufacturer's instruction) followed by 4 μL/well of criptate P-ERK antibody solution (prepared according to manufacturer's instruction) (Cisbio cat #64AERPEH) are added to test wells.
(§3) In order to allow proper data normalization control wells without drug treatment reported are always included in each plate (according to manufacturer's instruction):
(§4) The plate is then centrifuged at 300 rcf for 30 second, sealed to prevent evaporation and incubated overnight in the dark at room temperature.
The plate is then analyzed and fluorescence emission value collected through a Pherastast FSX (BMG Labtech) apparatus at […].
(§5) The obtained fluorescence values are processed according to the formula Ratio=[…]*10000 then the average of the ratio on the blank is subtracted to all values.
Individual points are fitted with either sigmoidal or bell shape curves, and the percentage of activation compared to maximum dabrafenib-mediated activation is determined. The EC50 is the concentration at which activation equal to 50% of the maximum achieved by dabrafenib is obtained.
The Percentage of Maximum paradox inducing effect from dabrafenib is determined by evaluating the percentage at which the test compound induce its maximum P-ERK signal as percentage of the highest signal produced by dabrafenib within the dose range tested.

Assay [3] deals with lymphocyte-specific tyrosine protein kinase (LCK) (Homo sapiens (Human), UniProt P06239). The assay can be described thus: Kd affinity for lymphocyte-specific tyrosine protein kinase (selectivity). In kind it is binding.
Assay [4] has as its system P-ERK in A375 cells expressing V600E mutated BRAF. Description: HTRF assay for P-ERK determination in A375 cells (BRAF inhibition). In kind it is cell-based. The following applies: Homo sapiens, A-375, 1 h, read-out: pERK IC50 (nM) A375. The method, then:
as §1, §2, §3, §4, §5
Mean of the normalized points are fitted with sigmoidal curve and IC50 determined.
(In TR-FRET formats the signal depends on donor and acceptor labels being close together.)

Another assay has as its target CRAF (Homo sapiens (Human), UniProt P04049). The assay can be described thus: Kd affinity for CRAF kinase. Type of assay: binding.
In another assay the target is BRAF (Homo sapiens (Human), UniProt P15056). Description: Kd affinity for BRAF kinase. Type of assay: binding.
Assay [5] deals with YUMM1.7 tumors (BRAF V600E). The assay can be described thus: In vivo antitumor activity on YUMM1.7 syngeneic allograft tumors. Also on record: species or system mouse (C57BL/6). The following applies: combination of Compound Ia (1 or 5 mg/kg PO QD) and mouse anti PD-1 antibody (IV once a week); monitored until day 58.
Protocol: Mice were treated until day 31 and afterwards drug treatments were suspended and mice were monitored for evidences of tumor regrowth.
Mice were treated until day 45 and afterwards drug treatments were suspended and mice were monitored for evidences of tumor regrowth.
In the in vivo studies, female mice 7-9 weeks old (at experiment initiation) of the immunocompetent strain C57BL/6 were utilized. The experiment was performed at the Contract Research Organization (CRO) Covance that sourced mice, performed tumor establishment, drug treatment and tumor monitoring.
For xenograft establishment YUMM1.7 cells were suspended in a media composed of 50% Matrigel and 50% Hank's balanced Salt Solution and injected subcutaneously on the right flanks. When tumor volume reached around 100 mm^3 mice were randomized prior treatment.
Mice were implanted with the cell line YUMM1.7 harboring the BRAF V600E mutation. Upon tumor establishment (100 mm3) mice were randomized and received orally (PO) once per day (QD) either Compound Ia (1 mg/kg or 5 mg/kg), mouse anti PD-1 antibody through IV injection, once a week or the respective combinations of PD-1 and Compound Ia at 1 or 5 mg/kg. […] Upon treatment conclusion mice were monitored until day 58 for signs of tumor relapse.
Assay [6] concerns YUMM1.7 tumors, immune cell infiltrate (mCD45, mCD3). Description: Immuno-phenotyping of YUMM1.7 tumors by flow cytometry and IHC. Type of assay: in vivo, mouse (C57/BL6). The protocol:
FIG. 6 reports the total immune cell (top) and T-cell (bottom) infiltrates in tumors, as quantified through flow cytometry. Total immune cell infiltrate was expressed as percentage of mCD45 positive with respect to the alive cells at day 3 and day 6, and T-cell infiltrate expressed in mCD3 positive cells per mm2.
FIG. 7 reports the immunohistochemistry analysis of the mouse immune cell marker CD45 of tumors treated for 3 days with either Vehicle, Compound Ia at 5 mg/kg (daily), mPD1 at 12.5 mg/kg (single treatment) or a combination thereof.
For the immunohistochemical analysis, female C57/BL6 mice were injected subQ with YUMM1.7 cells. When tumors reached around 250 mm^3 (day 14) mice were treated with either Compound Ia at 1 or 5 mg/kg daily (oral administration), with anti-mouse PD1 at 12.5 mg/kg once (single intraveneous administration) or the combination of Compound Ia and anti-mPD1. Mice were sacrificed and tumors collected upon 3 or five days from the beginning of the treatment and tumors were either digested and utilized for cytofluorimetric analysis of fixed and paraffin embedded.
For orientation: In flow cytometry, cells or beads pass a laser one at a time.

The subject of assay [7] is P-ERK in A375 BRAF V600E NRAS Q61K cells. Description: P-ERK levels in first generation BRAFi resistant cell model A375 BRAF V600E NRAS Q61K. Type of assay: cell-based.

Sequence of BRAF V600E (P15056 whole entry V600E): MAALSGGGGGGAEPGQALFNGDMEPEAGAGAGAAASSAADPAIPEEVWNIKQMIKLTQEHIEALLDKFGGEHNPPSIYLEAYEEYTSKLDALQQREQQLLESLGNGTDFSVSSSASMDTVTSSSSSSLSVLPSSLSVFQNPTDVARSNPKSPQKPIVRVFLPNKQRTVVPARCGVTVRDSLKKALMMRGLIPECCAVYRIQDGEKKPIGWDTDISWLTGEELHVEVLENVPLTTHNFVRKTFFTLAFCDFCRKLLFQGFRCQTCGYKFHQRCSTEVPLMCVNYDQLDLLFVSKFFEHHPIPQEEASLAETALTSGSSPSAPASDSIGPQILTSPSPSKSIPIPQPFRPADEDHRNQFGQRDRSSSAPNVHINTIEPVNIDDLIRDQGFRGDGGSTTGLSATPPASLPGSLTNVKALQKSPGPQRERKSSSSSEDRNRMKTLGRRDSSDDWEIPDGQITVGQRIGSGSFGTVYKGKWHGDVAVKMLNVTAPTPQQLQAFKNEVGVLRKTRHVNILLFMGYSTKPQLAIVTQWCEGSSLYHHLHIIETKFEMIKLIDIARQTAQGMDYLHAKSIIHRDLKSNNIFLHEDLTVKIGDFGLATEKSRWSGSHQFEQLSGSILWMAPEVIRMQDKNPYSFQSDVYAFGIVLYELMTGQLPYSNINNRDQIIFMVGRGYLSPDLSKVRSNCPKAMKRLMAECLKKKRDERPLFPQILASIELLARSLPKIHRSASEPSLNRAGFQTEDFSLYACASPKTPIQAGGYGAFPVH
Sequence of lymphocyte-specific tyrosine protein kinase (LCK) (P06239 whole entry): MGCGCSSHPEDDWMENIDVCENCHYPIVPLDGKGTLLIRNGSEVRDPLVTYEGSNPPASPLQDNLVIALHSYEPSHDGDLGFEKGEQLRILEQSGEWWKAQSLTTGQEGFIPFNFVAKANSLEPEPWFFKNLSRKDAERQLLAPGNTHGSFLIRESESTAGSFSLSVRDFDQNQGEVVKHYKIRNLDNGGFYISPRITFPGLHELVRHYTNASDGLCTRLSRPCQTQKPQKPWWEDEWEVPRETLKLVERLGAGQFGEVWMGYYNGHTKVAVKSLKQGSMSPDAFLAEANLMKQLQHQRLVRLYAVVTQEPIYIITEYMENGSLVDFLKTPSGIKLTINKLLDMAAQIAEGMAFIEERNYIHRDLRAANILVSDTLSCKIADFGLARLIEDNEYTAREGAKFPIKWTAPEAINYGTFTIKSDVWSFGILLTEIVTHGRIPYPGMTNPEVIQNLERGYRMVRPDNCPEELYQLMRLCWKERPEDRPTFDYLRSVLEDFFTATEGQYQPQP
Sequence of CRAF (P04049 whole entry): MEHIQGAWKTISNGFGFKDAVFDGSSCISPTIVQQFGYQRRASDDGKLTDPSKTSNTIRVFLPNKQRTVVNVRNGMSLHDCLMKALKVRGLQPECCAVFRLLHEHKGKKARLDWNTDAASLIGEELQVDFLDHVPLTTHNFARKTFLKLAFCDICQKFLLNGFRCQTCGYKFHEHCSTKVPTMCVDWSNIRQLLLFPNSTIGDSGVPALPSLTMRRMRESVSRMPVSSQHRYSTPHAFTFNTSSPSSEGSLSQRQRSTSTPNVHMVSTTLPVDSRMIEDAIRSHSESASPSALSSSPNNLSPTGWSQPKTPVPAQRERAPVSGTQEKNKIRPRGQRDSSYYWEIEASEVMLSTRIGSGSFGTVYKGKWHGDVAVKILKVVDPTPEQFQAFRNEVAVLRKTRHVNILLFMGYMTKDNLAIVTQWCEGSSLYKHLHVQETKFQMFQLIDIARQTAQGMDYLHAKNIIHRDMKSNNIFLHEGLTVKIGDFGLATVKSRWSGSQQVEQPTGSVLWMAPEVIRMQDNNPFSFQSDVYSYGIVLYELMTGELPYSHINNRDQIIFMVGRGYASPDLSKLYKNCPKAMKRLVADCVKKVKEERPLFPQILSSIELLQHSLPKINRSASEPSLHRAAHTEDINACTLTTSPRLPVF
Sequence of BRAF (P15056 whole entry): as the sequence (P15056 whole entry V600E) above, with E600V counted along it
Sequence of C-terminal Src kinase (CSK) (P41240 whole entry): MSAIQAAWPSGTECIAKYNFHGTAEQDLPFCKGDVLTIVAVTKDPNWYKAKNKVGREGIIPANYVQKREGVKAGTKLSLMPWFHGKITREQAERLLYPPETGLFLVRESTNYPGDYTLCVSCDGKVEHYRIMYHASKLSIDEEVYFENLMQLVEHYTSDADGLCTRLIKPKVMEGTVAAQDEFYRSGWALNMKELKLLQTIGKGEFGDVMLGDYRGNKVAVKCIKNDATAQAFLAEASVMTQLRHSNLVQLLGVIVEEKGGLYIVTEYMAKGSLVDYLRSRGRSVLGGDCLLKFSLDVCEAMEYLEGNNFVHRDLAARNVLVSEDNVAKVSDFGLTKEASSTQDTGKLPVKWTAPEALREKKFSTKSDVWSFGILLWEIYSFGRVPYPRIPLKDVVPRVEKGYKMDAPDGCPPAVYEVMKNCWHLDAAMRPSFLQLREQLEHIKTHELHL

As a reminder, the Kd is the constant that tells how readily two partners part at equilibrium. As usually defined, the EC50 is the concentration at which the effect is half-maximal. For orientation: IC50 means the concentration needed to halve the response being measured. Take `CCCS(=O)(=O)Nc1ccc(F)c(Oc2ccc3ncn(C)c(=O)c3c2)c1C#N` [AR-25]: the Kd is 0.2 nM at BRAF V600E; more than 40000 nM in assay [1]; more than 40000 nM in assay [3]; 0.3 nM on CRAF; 0.1 nM on BRAF. Moreover, the EC50 in assay [2] was found to be 9.6 nM. The IC50 in assay [4] turned out to be 1.1 nM.
For the compound `CN(C)S(=O)(=O)Nc1ccc(Cl)c(Nc2ccc3ncn(C)c(=O)c3c2)c1F` [AR-30], the Kd is 504 nM on BRAF V600E; 8010 nM in [1]; 10400 nM in [3]; 822 nM on CRAF; 174 nM on BRAF. For the same compound, in assay [2], the “Percentage of Maximum paradox inducing effect from dabrafenib” value (“Percentage” for short) was found to be 59%. For the same compound, the EC50 in [2] was more than 1000 nM. Further, the IC50 in assay [4] amounted to 406 nM.
Regarding `Cn1cnc2ccc(Nc3c(Cl)ccc(NS(=O)(=O)N4CCCC4)c3F)cc2c1=O` [AR-31], the Kd at BRAF V600E was found to be 119 nM; in assay [1], 1210 nM; in assay [3] it was 12000 nM; at CRAF it was 190 nM; on BRAF it was 45.9 nM. In addition, the “Percentage” value in [2] is recorded as 51.2%. For the same compound, in assay [2], the EC50 was more than 1000 nM. Moreover, in assay [4], the IC50 was determined as 311 nM.
As for `Cn1cnc2ccc(Oc3c(F)ccc(NS(=O)(=O)N4CC[C@@H](F)C4)c3C#N)cc2c1=O` [Ex. 1, (3R)-N-[2-cyano-4-fluoro-3-(3-methyl-4-oxo-quinazolin-6-yl)oxy-phenyl]-3-fluoro-pyrrolidine-1-sulfonamide], in assay [2], the “Percentage” value was determined as 43.65%. The “number of mice showing disease relapse” value in assay [5] is “strong impact”. For the same compound, the antitumor response entry in [6] (YUMM1.7 tumors, Compound Ia oral daily) is recorded as “robust antitumor response”. In [6] (flow cytometry and IHC data), the “recruitment of inflammatory infiltrate in tumors” value is given as “triggers recruitment of inflammatory infiltrate”. The “P-ERK reduction in combination with MEKi cobimetinib” value in assay [7] (combination with cobimetinib at fixed dose of 10 nM, compared with encorafenib/binimetinib) was “superior P-ERK reduction”. The “P-ERK inhibition as single agent” value in assay [7] (single agent, compared with Encorafenib) is listed as “potent P-ERK inhibition”.
